Reference: patent US10815540B2, “Treatments to eliminate HIV reservoirs and reduce viral load” (INSTITUT PASTEUR, priority 2017, dated 2020)
Like-named read-outs stand apart in the source and are kept apart here.

Assays:
SIVmac251 = settings: two weeks treatment with GA, in less than 2 months, chronic SIV infection, no anti-retroviral therapy, pilot study with 2 animals
Protocol: Correlation between the plasma viral load and the classical CD8 T cells (FIG. 9B) and with the HLA-E restricted CD8 T cells (FIG. 9C) were evaluated. The Spearman coefficients (r) and p-values are indicated.

HLA-E on CD4 T cells = test system: HLA-E on CD4 T cells
Description: Follow-up of the percentage of CD4 T cells expressing MHC-E on their surface (FIG. 7D).

[1] = test system: CD32a^high CD4 T cells expressing HLA-E; settings: spleen, 2 macaques treated with GA
Description: FIG. 10A) Flow cytometry dot plots. CD32a^highHLA-E^+ CD4^+ T cells from AGM and macaques are shown in blue. […] MAC=macaque.

[2] = test system: HLA-E restricted CD8 T cells; settings: at euthanasia, GA treated animal versus chronically SIV infected AGM
[3] = test system: HLA-E restricted CD8 T cells; settings: at around day 25, chronically SIV-infected GA treated macaques, versus 20%
[4] = test system: HLA-E restricted (NKG2A/C+) NK cells; settings: at around day 25, chronically SIV-infected GA treated macaques, versus 20%
pathogenic CD4 T cells = settings: in vivo; cited from earlier work
[5] = MS patients treated with GA for >10 years; cited from earlier work

Substance: L-glutamic acid polymer with L-alanine, L-lysine and L-tyrosine, acetate (salt) [GA]
- decrease of viremia (SIVmac251): ≤ 2 logs
- expression of HLA-E on CD4 T cells (HLA-E on CD4 T cells; animal the most advanced in disease, no HLA-E before treatment, continued to increase after treatment cessation): increase HLA-E levels
- expression of HLA-E on CD4 T cells (HLA-E on CD4 T cells; animal with already very high expression before treatment): remained as high
- effect on latently infected cells (CD32a^high CD4 T) [1]: targets CD32a^high CD4 T cells expressing HLA-E
- levels of HLA-E restricted CD8 T cells in the intestine [2]: comparable levels or even higher to those in AGM
- CD107a on HLA-E restricted CD8 T cells [3]: 60%
- CD107a on NK cells [4]: 60%
- efficacy in mouse model of inflammatory bowel diseases (pathogenic CD4 T cells): efficient
- efficacy [5]: long-term efficacy
